Results from ChEMBL document CHEMBL1201862, “PubChem BioAssay data set” (2004).
Each block holds one compound with its values, some of them ahead of it. Calls of active or inactive are those of the source.

Columns and labels:
[1] = biological target: Heat shock protein HSP 90-alpha (Homo sapiens, UniProt P07900); type: functional, organism-based
[2] = biological target: T1, Histone-lysine N-methyltransferase NSD2 (Homo sapiens, UniProt O96028); type: biochemical
T1 sequence (O96028 whole entry): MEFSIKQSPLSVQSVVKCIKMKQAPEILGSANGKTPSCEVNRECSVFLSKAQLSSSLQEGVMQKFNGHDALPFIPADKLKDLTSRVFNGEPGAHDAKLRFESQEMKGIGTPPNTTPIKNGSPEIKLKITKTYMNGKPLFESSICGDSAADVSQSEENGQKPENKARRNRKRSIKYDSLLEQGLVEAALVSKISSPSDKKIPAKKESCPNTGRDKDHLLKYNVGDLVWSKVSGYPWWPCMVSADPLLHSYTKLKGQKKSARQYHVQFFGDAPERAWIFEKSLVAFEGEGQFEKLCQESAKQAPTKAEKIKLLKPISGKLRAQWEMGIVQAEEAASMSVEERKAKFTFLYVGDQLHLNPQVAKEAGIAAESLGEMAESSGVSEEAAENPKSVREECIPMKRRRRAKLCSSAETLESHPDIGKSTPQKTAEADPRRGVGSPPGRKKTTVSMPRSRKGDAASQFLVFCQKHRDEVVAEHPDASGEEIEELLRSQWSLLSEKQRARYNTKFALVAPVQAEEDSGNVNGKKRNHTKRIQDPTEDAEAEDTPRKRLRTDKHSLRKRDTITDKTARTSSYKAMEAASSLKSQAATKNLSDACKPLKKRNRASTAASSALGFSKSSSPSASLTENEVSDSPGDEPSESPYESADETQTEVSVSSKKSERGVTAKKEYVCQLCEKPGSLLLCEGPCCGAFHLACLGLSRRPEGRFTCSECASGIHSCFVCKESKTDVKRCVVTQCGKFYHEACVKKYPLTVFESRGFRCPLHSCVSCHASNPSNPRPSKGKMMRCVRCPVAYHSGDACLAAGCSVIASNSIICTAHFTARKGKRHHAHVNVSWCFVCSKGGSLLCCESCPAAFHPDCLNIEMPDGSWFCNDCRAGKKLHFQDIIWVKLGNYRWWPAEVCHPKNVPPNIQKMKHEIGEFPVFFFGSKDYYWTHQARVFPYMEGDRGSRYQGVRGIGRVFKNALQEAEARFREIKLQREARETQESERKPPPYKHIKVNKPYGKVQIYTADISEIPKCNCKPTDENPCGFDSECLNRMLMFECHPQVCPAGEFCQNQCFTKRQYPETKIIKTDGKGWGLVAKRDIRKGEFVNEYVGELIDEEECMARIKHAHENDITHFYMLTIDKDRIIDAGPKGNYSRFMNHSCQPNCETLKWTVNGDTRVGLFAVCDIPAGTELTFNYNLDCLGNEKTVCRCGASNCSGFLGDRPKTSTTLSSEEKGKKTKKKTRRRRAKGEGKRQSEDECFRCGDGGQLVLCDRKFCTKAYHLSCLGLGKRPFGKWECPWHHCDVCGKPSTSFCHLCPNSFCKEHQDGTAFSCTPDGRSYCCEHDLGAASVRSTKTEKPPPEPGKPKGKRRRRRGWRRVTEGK

INS1 = assay: beta cell apoptosis inhibitors, cytokine rescue, dose response, luminescence, retest (AID 449756); type: functional, cell-based; details: Rattus norvegicus;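 also: cell death triggered by IL-1 beta plus TNF-alpha plus IFN-gamma mixture; protective hits raise ATP signal compared with cytokine alone wells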
[3] = biological target: T2, DNA repair and recombination protein RAD54-like (Homo sapiens, UniProt Q92698); assay: inhibitors of human RAD54 branch migration, confirmation, biochemical, fluorescence, cherry-picked samples, dose series (AID 651657); type: functional
T2 sequence (Q92698 whole entry): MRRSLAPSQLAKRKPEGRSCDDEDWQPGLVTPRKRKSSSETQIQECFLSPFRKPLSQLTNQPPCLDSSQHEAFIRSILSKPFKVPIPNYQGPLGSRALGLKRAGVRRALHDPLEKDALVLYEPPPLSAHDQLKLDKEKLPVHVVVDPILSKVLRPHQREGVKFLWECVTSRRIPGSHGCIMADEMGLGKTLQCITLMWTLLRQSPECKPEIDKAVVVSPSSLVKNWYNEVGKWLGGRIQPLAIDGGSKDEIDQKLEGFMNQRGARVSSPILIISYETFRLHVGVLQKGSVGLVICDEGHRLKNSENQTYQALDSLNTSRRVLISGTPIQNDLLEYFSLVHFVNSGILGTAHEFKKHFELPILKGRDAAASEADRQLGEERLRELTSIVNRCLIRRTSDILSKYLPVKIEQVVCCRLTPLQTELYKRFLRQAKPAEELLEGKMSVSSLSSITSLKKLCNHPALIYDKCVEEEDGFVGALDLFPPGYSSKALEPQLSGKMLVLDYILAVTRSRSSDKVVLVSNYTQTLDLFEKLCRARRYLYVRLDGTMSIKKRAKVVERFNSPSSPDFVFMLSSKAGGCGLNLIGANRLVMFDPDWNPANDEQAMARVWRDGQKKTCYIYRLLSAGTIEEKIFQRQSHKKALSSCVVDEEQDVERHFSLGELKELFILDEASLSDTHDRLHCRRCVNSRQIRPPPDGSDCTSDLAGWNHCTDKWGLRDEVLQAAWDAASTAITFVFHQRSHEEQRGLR

[4] = A549 cell cytotoxicity, dose response, cytotoxicity control, plate reader, cherry-pick, antagonist series (AID 743412); type: functional, cell-based
[5] = HepG2 cell cytotoxicity, dose response, cytotoxicity control, plate reader, cherry-pick, antagonist series (AID 743416); type: functional, cell-based
[6] = LGR2 antagonists, dose response, cell-based, HEK293, CRE-luciferase reporter, cherry pick, set 2 (AID 743343); type: functional;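 also: transfected cells were stimulated with diluted bursicon conditioned medium after compound addition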
[7] = HepG2 cell cytotoxicity, dose response, cytotoxicity control, ATP luminescence, cherry-pick, activator set 2 (AID 1053143); type: functional, cell-based
[8] = MC4R antagonists, dose response, counter-screen for LGR2 antagonist project, cell-based, plate reader, cherry pick (AID 743444); type: functional;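 also: transfected HEK 293 cells stimulated with alpha-MSH peptide; potency of inhibitors of the alpha-MSH evoked signal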
[9] = HEK293 cell cytotoxicity, dose response, cytotoxicity control, plate reader, cherry-picked samples (AID 743446); type: functional, cell-based
[10] = biological target: T3, Oxysterols receptor LXR-beta (Homo sapiens, UniProt P55055); type: functional, cell-based;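 also: Cell-based luminescence dose-response assay of agonist activity at LXR, run as a confirmatory counterscreen to a daf-12 agonist screen; HEK293 cells with Gal4-LXR fusion and GAL4-driven luciferase reporter; agonist potency from rising luciferase signal of a Gal4-LXR reporter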
T3 sequence (P55055 whole entry): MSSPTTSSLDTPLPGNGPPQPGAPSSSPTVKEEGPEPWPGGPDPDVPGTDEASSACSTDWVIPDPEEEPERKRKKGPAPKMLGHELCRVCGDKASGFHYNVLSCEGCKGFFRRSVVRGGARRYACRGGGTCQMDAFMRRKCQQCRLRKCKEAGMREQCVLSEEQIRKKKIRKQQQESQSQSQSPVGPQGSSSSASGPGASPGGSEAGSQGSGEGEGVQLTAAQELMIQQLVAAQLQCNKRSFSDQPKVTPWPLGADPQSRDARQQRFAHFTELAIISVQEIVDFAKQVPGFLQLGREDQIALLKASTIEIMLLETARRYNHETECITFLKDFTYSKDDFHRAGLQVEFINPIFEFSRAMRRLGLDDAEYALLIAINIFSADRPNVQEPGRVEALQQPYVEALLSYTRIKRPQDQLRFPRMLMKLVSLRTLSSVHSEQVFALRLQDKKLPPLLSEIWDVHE

cells [11] = assay: cells
[12] = Luminescence-based cell-based high throughput dose response assay to identify activators of the DAF-12 from the parasite S. stercoralis (ssDAF-12).; type: functional
Paired box protein Pax-8 = Paired box protein Pax-8 (Homo sapiens, UniProt Q06710); assay: inhibitors of PAX8-driven TPO luciferase reporter, dose response, RMG-I cells, cherry-pick (AID 687027); type: functional, cell-based;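 also: luciferase reporter driven by Pax8 target thyroperoxidase promoter measured by SteadyGlo luminescence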
[13] = IOSE-T80 ovarian epithelial cell cytotoxicity, dose response, cytotoxicity control for PAX8 inhibitor project, plate reader, dry powder samples (AID 743045); type: functional, cell-based
[14] = A2780 ovarian cancer cell cytotoxicity, dose response, cytotoxicity control, plate reader, dry powder samples (AID 743046); type: functional, cell-based
[15] = NIH:OVCAR-3 ovarian cancer cell cytotoxicity, dose response, PAX8 inhibitor project, plate reader, dry powder samples (AID 743044); type: functional, cell-based
[16] = IGROV1 ovarian cancer cell cytotoxicity, dose response, PAX8 inhibitor project, plate reader, dry powder samples (AID 743043); type: functional, cell-based; details: IGROV-1
[17] = cytotoxicity in OVCAR8 ovarian cancer cells, dose response, PAX8 project, cell-based, plate reader, dry powder samples (AID 743197); type: functional; details: OVCAR-8
cells [18] = type: functional, cell-based
[19] = biological target: T4, Trace amine-associated receptor 1 (Homo sapiens, UniProt Q96RJ0); assay: Fluorescence-based cell-based high throughput dose response assay to identify agonists of the human trace amine associated receptor 1 (TAAR1).; type: functional
T4 sequence (Q96RJ0 whole entry): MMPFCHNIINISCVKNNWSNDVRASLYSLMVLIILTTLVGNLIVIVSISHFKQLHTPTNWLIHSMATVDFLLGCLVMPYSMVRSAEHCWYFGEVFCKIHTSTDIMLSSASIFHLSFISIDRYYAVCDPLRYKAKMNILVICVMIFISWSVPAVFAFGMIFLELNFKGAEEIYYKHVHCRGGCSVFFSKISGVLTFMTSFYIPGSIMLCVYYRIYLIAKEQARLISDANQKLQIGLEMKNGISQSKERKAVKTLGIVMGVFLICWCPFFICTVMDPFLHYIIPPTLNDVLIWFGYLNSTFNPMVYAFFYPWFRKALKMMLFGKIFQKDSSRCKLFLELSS

[20] = biological target: T4, Trace amine-associated receptor 1; assay: Counterscreen for agonists of the human trace amine associated receptor 1 (hTAAR1): Fluorescence-based cell-based high throughput dose response assay to identify hTAAR1 agonist that also desensitize TAAR1 receptor response.; type: functional
cells [21] = type: functional, cell-based; remark: listed apart in the source
[22] = Dose-response inhibition of insulin secretion in a rat insulinoma line at 5 mM glucose (AID 1117331); type: functional, cell-based; details: INS-1E
[23] = P. falciparum 3D7-ScDHODH growth inhibitors, dose response, SYBR Green, dry powder samples (AID 1159570); type: functional, cell-based;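 also: parasite growth measured after 72 hours of compound exposure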
[24] = HepG2 cell cytotoxicity, dose response, cytotoxicity control, plate reader, dry powder samples (AID 1159569); type: functional, cell-based;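 also: inhibitor potency with signal falling toward the positive control level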
[25] = P. falciparum Dd2 growth inhibitors, dose response, SYBR Green, cherry-picked samples (AID 1159567); type: functional, cell-based
[26] = P. falciparum Dd2 growth inhibitors, dose response, SYBR Green, dry powder samples (AID 1159566); type: functional, cell-based;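 also: potency for growth inhibition with lower SYBR green DNA signal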
[27] = HepG2 cell cytotoxicity, dose response, cytotoxicity control, cherry-picked samples (AID 1159577); type: functional, cell-based
[28] = P. falciparum ATP4 D1247Y mutant growth inhibitors, dose response, NITD609-resistant line, SYBR Green, dry powder (AID 1159571); type: functional, cell-based;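 also: parasites synchronized at ring stage by sorbitol before testing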

Chain of Paired box protein Pax-8 (Q06710 whole entry): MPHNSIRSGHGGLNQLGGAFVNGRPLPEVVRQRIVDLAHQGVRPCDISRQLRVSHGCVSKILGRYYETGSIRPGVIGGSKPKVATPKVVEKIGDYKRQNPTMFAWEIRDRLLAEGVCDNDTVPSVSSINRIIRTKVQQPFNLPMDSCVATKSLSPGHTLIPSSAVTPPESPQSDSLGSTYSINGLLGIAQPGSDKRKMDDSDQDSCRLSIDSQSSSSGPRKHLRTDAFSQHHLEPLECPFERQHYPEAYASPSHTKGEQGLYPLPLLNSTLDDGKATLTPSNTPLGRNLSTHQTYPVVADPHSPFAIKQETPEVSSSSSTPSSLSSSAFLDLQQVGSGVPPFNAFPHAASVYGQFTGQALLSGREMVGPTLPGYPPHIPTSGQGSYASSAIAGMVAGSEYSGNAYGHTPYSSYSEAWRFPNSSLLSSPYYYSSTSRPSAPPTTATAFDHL

- AC50 [1]: 4.12 µM (active)
- AC50 [2]: > 20 µM (inactive)
SMILES: CC1=NOC(=O)/C1=C\c1ccc(-c2ccc(Br)cc2)o1

SMILES: CC(=O)Nc1sc2c(c1-c1nc3ccccc3s1)CN(C(C)C)CC2
- AC50 (INS1): 752 nM (active)
- AC50 [3]: 715 nM (active)
- AC50 [4]: 2.35 µM (active)
- AC50 [5]: 3.52 µM (active)
- AC50 [6]: 27.7 µM (active)
- AC50 [7]: 12.5 µM (active)
- AC50 [8]: 23.2 µM (active)
- AC50 [9]: 25.7 µM (active)

SMILES: CC1CCCN(c2nc3ccsc3c(=O)s2)C1 (centres undefined)
- AC50 [7]: > 52 µM (inactive)

- AC50 [2]: 14.4 µM (active)
SMILES: Oc1ccccc1CNc1cccc2cccnc12

SMILES: CCOC(=O)c1sc2nc(-c3ccccc3)ccc2c1N
- EC50 [10]: > 67.5 µM (inactive)
- EC50 (cells [11]): > 67.5 µM (inactive)

SMILES: O=[N+]([O-])c1cc(Cl)ccc1-c1nc(-c2ccccc2)no1
- IC50 [12]: > 67.6 µM (inactive)

SMILES: C/C(=N\c1ccc(C)cc1)c1sc2ccccc2c1O
- EC50 [10]: > 67.5 µM (inactive)
- EC50 (cells [11]): > 67.5 µM (inactive)

SMILES: C[C@H](CO)N1C[C@H](C)[C@@H](CN(C)Cc2ccccc2)OCCCC[C@H](C)Oc2ccc(NC(=O)Nc3ccc(C(F)(F)F)cc3)cc2C1=O
- AC50 (Paired box protein Pax-8): 13.5 µM (active)
- AC50 [13]: 39.8 µM (active)
- AC50 [14]: 36.2 µM (active)
- AC50 [15]: 16.7 µM (active)
- AC50 [16]: 22.4 µM (active)
- AC50 [17]: 25.2 µM (active)

SMILES: C[C@@H]1CN([C@H](C)CO)C(=O)c2cc(NC(=O)Nc3ccc(C(F)(F)F)cc3)ccc2O[C@@H](C)CCCCO[C@H]1CN(C)C(=O)Nc1ccc(C(F)(F)F)cc1
- AC50 (Paired box protein Pax-8): 1.89 µM (active)
- AC50 [14]: 34.1 µM (active)
- AC50 [15]: 12.4 µM (active)
- AC50 [16]: 63 µM (active)
- AC50 [17]: 52.3 µM (active)

SMILES: O=C(N[C@@H](Cc1cccnc1)C(=O)N1CCC[C@H]1C(=O)NCCc1ccccc1Cl)C1CC1
- IC50 (cells [18]): > 29.9 µM (inactive)
- EC50 [19]: > 9.98 µM (active)
- IC50 [20]: 13.6 µM (inactive)
- EC50 (cells [21]): > 29.9 µM (inactive)

SMILES: CCO[C@H](Cc1ccc(OCCc2ccc(OS(C)(=O)=O)cc2)cc1)C(=O)O
- IC50 [22]: > 33.3 µM (inactive)

SMILES: OC[C@H]1[C@@H](c2ccc(-c3ccc(F)cc3)cc2)[C@@H]2CN(CCC(F)(F)F)CCCCN12
- AC50 [23]: 1.21 µM (active)
- AC50 [24]: 17 µM (active)
- AC50 [25]: 726 nM (active)
- AC50 [26]: 518 nM (active)
- AC50 [27]: 20.5 µM (active)
- AC50 [28]: 1.1 µM (active)

SMILES: N#Cc1ccc(-c2ccc([C@@H]3[C@@H]4CN(C(=O)C5CCCCC5)C[C@H]3N4)cc2)cc1
- AC50 [23]: 2.4 µM (active)
- AC50 [24]: 23.8 µM (active)
- AC50 [25]: 2790 nM (active)
- AC50 [26]: 1340 nM (active)
- AC50 [28]: 2.85 µM (active)
